Data: US12091411B2, “IRAK degraders and uses thereof” (Kymera Therapeutics, Inc., priority 2022, dated 2024)
Read-outs that look alike come from different tables or passages of the source.

Biological target: T1, IRAK4 (Homo sapiens, UniProt Q9NWZ3)
T1 construct: Degradation of IRAK4 in OCI-LY10 was quantitatively measured using Meso Scale Discovery technology; endogenous in cells; host or cells: OCI-LY10
T1 sequence (Q9NWZ3 1-460): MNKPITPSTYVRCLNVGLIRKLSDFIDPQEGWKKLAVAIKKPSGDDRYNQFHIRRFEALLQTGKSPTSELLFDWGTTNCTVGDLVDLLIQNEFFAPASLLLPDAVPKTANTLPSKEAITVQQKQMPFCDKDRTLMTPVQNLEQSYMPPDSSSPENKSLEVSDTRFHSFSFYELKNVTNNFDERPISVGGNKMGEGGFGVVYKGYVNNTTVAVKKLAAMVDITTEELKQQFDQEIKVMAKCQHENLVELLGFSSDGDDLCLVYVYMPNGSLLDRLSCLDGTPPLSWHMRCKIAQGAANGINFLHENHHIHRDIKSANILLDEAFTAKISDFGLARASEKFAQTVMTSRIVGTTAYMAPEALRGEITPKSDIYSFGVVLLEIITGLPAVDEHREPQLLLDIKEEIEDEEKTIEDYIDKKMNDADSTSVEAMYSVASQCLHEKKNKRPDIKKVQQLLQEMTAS
Assay: IRAK4 MSD Degradation in OCI-LY10
Format: cell-based
Details: OCI-LY10 cells, MSD
Outline: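 OCI-LY10 cells exposed to 8-point 1:3 compound series (top 1 to 10 μM) for 4 to 24 h at 37 °C, 5% CO2. Lysate IRAK4 quantified by MSD sandwich immunoassay. DC50 from three-parameter logistic fit, binned A (<0.01 μM) to D (>0.2 μM or not tested).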

[1] = 4 hrs incubation, read-out: IRAK4 degradation in OCI-LY10 at 4 hrs: DC50
[2] = 24 hrs incubation, read-out: IRAK4 degradation in OCI-LY10 at 24 hrs: DC50

| SMILES | DC50 [1] | DC50 [2] |
| --- | --- | --- |
| CN(C[C@H]1CC[C@H](n2cc(NC(=O)c3cnn4ccc(N5C[C@H]6C[C@@H]5CO6)nc34)c(C(F)F)n2)CC1)C1CN(c2cccc3c2n(C)c(=O)n3C2CCC(=O)NC2=O)C1 (stereo partly drawn) [I-602] | > 0.2 µM | > 0.2 µM |
| C[C@H]1CN(c2ccn3ncc(C(=O)Nc4cn([C@H]5CC[C@H](CN(C)C6CN(c7cccc8c7n(C)c(=O)n8C7CCC(=O)NC7=O)C6)CC5)nc4C(F)F)c3n2)CCO1 (stereo partly drawn) [I-603] | > 0.2 µM | > 0.2 µM |
| Cn1c(=O)n(C2CCC(=O)NC2=O)c2cccc(N3CC(F)(CN4CCN(C[C@H]5CC[C@H](n6cc(NC(=O)c7cnn8ccc(N9C[C@H]%10CC9CO%10)nc78)c(C(F)F)n6)CC5)CC4)C3)c21 (stereo partly drawn) [I-604] | > 0.2 µM | > 0.2 µM |
| Cn1c(=O)n(C2CCC(=O)NC2=O)c2cccc(N3CC(O)(CN4CCN(C[C@H]5CC[C@H](n6cc(NC(=O)c7cnn8ccc(N9C[C@H]%10CC9CO%10)nc78)c(C(F)F)n6)CC5)CC4)C3)c21 (stereo partly drawn) [I-605] | > 0.2 µM | < 0.01 µM |
| COC1(CN2CCN(C[C@H]3CC[C@H](n4cc(NC(=O)c5cnn6ccc(N7C[C@H]8CC7CO8)nc56)c(C(F)F)n4)CC3)CC2)CN(c2cccc3c2n(C)c(=O)n3C2CCC(=O)NC2=O)C1 (stereo partly drawn) [I-606] | > 0.2 µM | < 0.01 µM |
| Cn1c(=O)n(C2CCC(=O)NC2=O)c2cccc(OC3CN(C[C@H]4CC[C@H](n5cc6cc(NC(=O)c7cccc(C(F)(F)F)n7)ccc6n5)CC4)C3)c21 (stereo partly drawn) [I-607] | > 0.2 µM | 0.01 to 0.1 µM |
| Cn1c(=O)n(C2CCC(=O)NC2=O)c2cccc(OC3CN(C[C@H]4CC[C@H](n5cc6cc(NC(=O)c7cccc(C(F)(F)F)n7)ncc6n5)CC4)C3)c21 (stereo partly drawn) [I-608] | > 0.2 µM | > 0.2 µM |
| Cn1c(=O)n(C2CCC(=O)NC2=O)c2cccc(C3CN(C[C@H]4CC[C@H](n5cc6cc(NC(=O)c7cccc(C(F)(F)F)n7)ccc6n5)CC4)C3)c21 (stereo partly drawn) [I-609] | > 0.2 µM | > 0.2 µM |
| Cn1c(=O)n(C2CCC(=O)NC2=O)c2cccc(C3CN(C[C@H]4CC[C@H](n5cc6cc(NC(=O)c7cccc(C(F)(F)F)n7)ncc6n5)CC4)C3)c21 (stereo partly drawn) [I-610] | > 0.2 µM | > 0.2 µM |
| Cc1cccc(C(=O)Nc2ccc3nn([C@H]4CC[C@H](CN5CCC(c6cccc7c6n(C)c(=O)n7C6CCC(=O)NC6=O)C(F)(F)C5)CC4)cc3c2)n1 (stereo partly drawn) [I-611] | > 0.2 µM | > 0.2 µM |
| Cn1c(=O)n(C2CCC(=O)NC2=O)c2cccc(C3CCN(C[C@H]4CC[C@H](n5cc6cc(NC(=O)c7cccc(C#N)n7)ccc6n5)CC4)CC3(F)F)c21 (stereo partly drawn) [I-612] | > 0.2 µM | > 0.2 µM |
| Cn1c(=O)n(C2CCC(=O)NC2=O)c2cccc(C3CCN(C[C@H]4CC[C@H](n5cc6cc(NC(=O)c7cccc(C(F)F)n7)ccc6n5)CC4)CC3(F)F)c21 (stereo partly drawn) [I-613] | > 0.2 µM | < 0.01 µM |
| Cc1cccc(C(=O)Nc2cc3cn([C@H]4CC[C@H](CN5CCC(c6cccc7c6n(C)c(=O)n7C6CCC(=O)NC6=O)C(F)(F)C5)CC4)nc3cn2)n1 (stereo partly drawn) [I-614] | > 0.2 µM | < 0.01 µM |
| Cn1c(=O)n(C2CCC(=O)NC2=O)c2cccc(C3CCN(C[C@H]4CC[C@H](n5cc6cc(NC(=O)c7cccc(C#N)n7)ncc6n5)CC4)CC3(F)F)c21 (stereo partly drawn) [I-615] | > 0.2 µM | < 0.01 µM |
| Cn1c(=O)n(C2CCC(=O)NC2=O)c2cccc(C3CCN(C[C@H]4CC[C@H](n5cc6cc(NC(=O)c7cccc(C(F)F)n7)ncc6n5)CC4)CC3(F)F)c21 (stereo partly drawn) [I-616] | > 0.2 µM | < 0.01 µM |
| Cc1cccc(C(=O)Nc2cc3cn([C@H]4CC[C@H](CN5CCC(c6cccc7c6n(C)c(=O)n7C6CCC(=O)NC6=O)C(F)(F)C5)CC4)nc3cc2C(C)(C)O)n1 (stereo partly drawn) [I-617] | > 0.2 µM | < 0.01 µM |
| Cn1c(=O)n(C2CCC(=O)NC2=O)c2cccc(C3CCN(C[C@H]4CC[C@H](n5cc6cc(NC(=O)c7cccc(C#N)n7)c(C(C)(C)O)cc6n5)CC4)CC3(F)F)c21 (stereo partly drawn) [I-618] | > 0.2 µM | < 0.01 µM |
| Cn1c(=O)n(C2CCC(=O)NC2=O)c2cccc(C3CCN(C[C@H]4CC[C@H](n5cc6cc(NC(=O)c7cccc(C(F)F)n7)c(C(C)(C)O)cc6n5)CC4)CC3(F)F)c21 (stereo partly drawn) [I-619] | > 0.2 µM | < 0.01 µM |
